Here are results for 25 compounds from paper PMC10527105, “Chirality Matters: Fine-Tuning of Novel Monoamine Reuptake Inhibitors Selectivity through Manipulation of Stereochemistry” (Biomolecules, 2023).

Read-outs that look alike come from different tables or passages of the source. Bounds are passed on as bounds.

Assay type in all cases: cell-based
Experiment [1] deals with T1, human dopamine transporter/SLC6A3 (DAT) (Homo sapiens, UniProt Q01959).
T1 construct: expressed in transfected cells; host or cells: HEK293
The experiment in a line: Cellular uptake experiments: [3H]-dopamine reuptake inhibition in transporter-expressing HEK293 cells. The conditions noted are these: for IC50: cells stably expressing DAT, [3H]-dopamine 1 µM, screening cut-off 50 µM. The procedure:
(§1) Cell culture. Human embryonic kidney (HEK) 293 or SK-N-MC (human neuroblastoma) cells were grown in minimum essential medium with Earle’s salts and L-glutamine, 10% heat-inactivated fetal bovine serum, and 50 mg/L gentamicin. Cells were grown in 100- or 60-mm diameter tissue culture dishes (polystyrene, Falcon) at 37 °C under an atmosphere of 5% CO2/95% air. The human dopamine transporter/SLC6A3 (DAT), noradrenaline transporter/SLC6A2 (NET), or human serotonin transporter/SLC6A4 (SERT) cDNA was stably expressed using methods as described previously.
(§2) Cellular uptake experiments. The transporter-expressing HEK293 cells were seeded in poly-D-lysine-coated 24-well plates (1 × 10^5 cells/well) and, one day later, each well was washed with 0.5 mL uptake buffer and incubated with 0.5 mL buffer containing various concentrations of the drugs. Uptake was started by the addition of [^3H]-dopamine, [^3H]-noradrenaline, or [^3H]-serotonin at a final concentration of 1 µM (specific activity 0.14 Ci/mmol) after 5 min of preincubation. After incubation for 2.5 min (SERT-cells: 5 min) at 25 °C, it was stopped by aspirating the uptake buffer and washing each well twice with 1 mL ice-cold buffer. Nonspecific uptake was determined in the presence of 10 µM mazindol (DAT- and NET-cells) or 10 µM clomipramine (SERT-cells). The radioactivity remaining in each well was determined by incubating with 0.4 mL 1% sodium dodecyl sulphate and transferring this solution into scintillation vials containing 3 mL of scintillation cocktail (Ultima Gold MV, Packard, Dovners Grove, IL, USA). The uptake buffer consisted of (mmol/L): 4 Tris–HCl; 6.25 4-(2-hydroxyethyl)-1-piperazineethanesulfonic acid (HEPES); 120 NaCl; 5 KCl; 1.2 CaCl2; 1.2 MgSO4; 5.6 D-glucose; 0.5 ascorbic acid; pH 7.1.

Experiment [2] deals with T2, human serotonin transporter/SLC6A4 (SERT) (Homo sapiens, UniProt P31645).
T2 construct: expressed in transfected cells; host or cells: HEK293
Description: Cellular uptake experiments: [3H]-serotonin reuptake inhibition in transporter-expressing HEK293 cells. Here is the method: as §1, §2

The target of experiment [3] is T3, noradrenaline transporter/SLC6A2 (NET) (Homo sapiens, UniProt P23975).
T3 construct: expressed in transfected cells; host or cells: HEK293
Description: Cellular uptake experiments: [3H]-noradrenaline reuptake inhibition in transporter-expressing HEK293 cells. Here is the method:
as §1, §2

[4] abbreviates: Reuptake Inhibition (IC50 ± SE, µM) DAT.
[5] abbreviates: Reuptake Inhibition (IC50 ± SE, µM) SERT, cells stably expressing SERT; [3H]-serotonin 1 µM; screening cut-off 50 µM.
[6] abbreviates: Reuptake Inhibition (IC50 ± SE, µM) NET, cells stably expressing NET; [3H]-noradrenaline 1 µM; screening cut-off 50 µM.
Where [7] appears, read: read-out: Reuptake Inhibition (IC50 ± SE, µM) SERT; cells stably expressing SERT; [3H]-serotonin 1 µM; screening cut-off 50 µM.
Setting [8] is: read-out: Reuptake Inhibition (IC50 ± SE, µM) NET; cells stably expressing NET; [3H]-noradrenaline 1 µM; screening cut-off 50 µM.
[9] abbreviates: read-out: Reuptake Inhibition (IC50 ± SE, µM) DAT.
The mark [10] stands for this setting: cells stably expressing SERT; [3H]-serotonin 1 µM; screening cut-off 50 µM; read-out: Reuptake Inhibition (IC50 ± SE, µM) SERT.
Setting [11] is: cells stably expressing NET; [3H]-noradrenaline 1 µM; screening cut-off 50 µM; read-out: Reuptake Inhibition (IC50 ± SE, µM) NET.
Where [12] appears, read: at 50 µM / tested concentration range.

T2 sequence (P31645 whole entry): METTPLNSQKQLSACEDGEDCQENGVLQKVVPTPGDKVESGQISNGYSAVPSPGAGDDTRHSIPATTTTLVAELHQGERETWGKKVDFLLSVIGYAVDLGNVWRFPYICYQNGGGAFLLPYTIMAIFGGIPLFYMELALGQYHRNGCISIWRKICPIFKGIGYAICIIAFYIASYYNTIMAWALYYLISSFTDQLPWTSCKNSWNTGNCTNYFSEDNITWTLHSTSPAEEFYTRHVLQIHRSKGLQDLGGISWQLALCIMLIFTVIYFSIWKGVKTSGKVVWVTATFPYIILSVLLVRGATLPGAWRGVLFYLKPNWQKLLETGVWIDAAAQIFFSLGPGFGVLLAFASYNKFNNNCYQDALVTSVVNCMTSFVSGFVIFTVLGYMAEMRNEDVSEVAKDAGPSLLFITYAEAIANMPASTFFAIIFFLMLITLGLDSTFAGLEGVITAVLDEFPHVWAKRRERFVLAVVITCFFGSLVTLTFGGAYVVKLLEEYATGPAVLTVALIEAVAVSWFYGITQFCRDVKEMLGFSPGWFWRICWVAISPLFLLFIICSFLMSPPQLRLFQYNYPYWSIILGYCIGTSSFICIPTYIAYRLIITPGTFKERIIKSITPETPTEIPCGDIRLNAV
T1 sequence (Q01959 whole entry): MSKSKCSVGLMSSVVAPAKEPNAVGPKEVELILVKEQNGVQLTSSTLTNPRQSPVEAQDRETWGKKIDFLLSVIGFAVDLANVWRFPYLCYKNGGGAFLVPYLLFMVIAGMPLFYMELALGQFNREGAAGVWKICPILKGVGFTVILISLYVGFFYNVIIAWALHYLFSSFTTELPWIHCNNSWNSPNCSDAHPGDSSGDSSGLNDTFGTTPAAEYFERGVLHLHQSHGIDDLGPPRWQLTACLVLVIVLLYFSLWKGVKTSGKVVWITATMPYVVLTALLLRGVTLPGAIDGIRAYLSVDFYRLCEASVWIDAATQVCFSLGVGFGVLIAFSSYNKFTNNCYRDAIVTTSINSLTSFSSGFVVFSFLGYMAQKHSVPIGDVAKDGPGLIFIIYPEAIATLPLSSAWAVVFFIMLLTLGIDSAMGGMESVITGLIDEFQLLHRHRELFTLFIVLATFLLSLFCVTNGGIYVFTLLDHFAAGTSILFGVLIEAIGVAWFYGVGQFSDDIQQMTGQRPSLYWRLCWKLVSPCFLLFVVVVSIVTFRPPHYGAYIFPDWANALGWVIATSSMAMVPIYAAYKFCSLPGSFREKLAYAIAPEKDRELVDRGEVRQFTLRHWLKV
T3 sequence (P23975 whole entry): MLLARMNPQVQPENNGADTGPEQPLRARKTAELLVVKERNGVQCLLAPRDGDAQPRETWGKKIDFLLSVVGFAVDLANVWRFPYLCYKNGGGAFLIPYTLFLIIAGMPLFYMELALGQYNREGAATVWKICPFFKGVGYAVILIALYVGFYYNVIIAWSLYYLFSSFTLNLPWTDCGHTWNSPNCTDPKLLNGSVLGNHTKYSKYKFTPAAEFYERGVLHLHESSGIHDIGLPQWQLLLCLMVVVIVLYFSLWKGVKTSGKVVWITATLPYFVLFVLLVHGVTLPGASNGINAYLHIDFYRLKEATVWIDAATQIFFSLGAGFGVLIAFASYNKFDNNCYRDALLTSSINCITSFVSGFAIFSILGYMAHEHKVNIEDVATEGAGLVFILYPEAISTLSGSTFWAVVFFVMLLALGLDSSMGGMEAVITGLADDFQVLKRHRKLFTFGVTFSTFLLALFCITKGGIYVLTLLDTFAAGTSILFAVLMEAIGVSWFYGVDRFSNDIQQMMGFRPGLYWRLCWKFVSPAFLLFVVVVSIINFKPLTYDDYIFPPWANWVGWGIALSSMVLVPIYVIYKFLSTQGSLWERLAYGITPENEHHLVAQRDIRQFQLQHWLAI

For the compound `[O-][S@@+](Cc1cccs1)[C@H](c1ccccc1)c1cccc(Cl)c1` [Compound 5e, (S,R)-2-((((3-chlorophenyl)(phenyl)methyl)sulfinyl)methyl)thiophene], the results for the IC50 in experiment [1] (setting [4]), in experiment [2] (setting [5]) and in experiment [3] (setting [6]) were 3 ± 0.1 µM, > 50 µM and > 50 µM, respectively.
For `[O-][S@+](Cc1cccs1)[C@@H](c1ccccc1)c1ccc(I)cc1` [Compound 6k, (R,S)-2-((((4-iodophenyl)(phenyl)methyl)sulfinyl)methyl)thiophene], the IC50 – broadly, the concentration at which inhibition is half-maximal – was 1.1 ± 0.3 µM in experiment [1] (setting [4]), 3.8 ± 0.5 µM in experiment [2] (setting [5]) and > 50 µM in experiment [3] (setting [6]).
On the same counts, the results for `[O-][S@@+](Cc1cccs1)[C@@H](c1ccccc1)c1cccc(Cl)c1` [Compound 7e, (S,S)-2-((((3-chlorophenyl)(phenyl)methyl)sulfinyl)methyl)thiophene] are 0.63 ± 0.17 µM, > 50 µM and 29 ± 4 µM.
The like results for `[O-][S@+](Cc1cccs1)[C@H](c1ccccc1)c1cccc(Cl)c1` [Compound 8e, (R,R)-2-((((3-chlorophenyl)(phenyl)methyl)sulfinyl)methyl)thiophene] were, in that order, 0.83 ± 0.16 µM, 19 ± 1 µM and 48 ± 6 µM.
Regarding `[O-][S+](Cc1cccs1)C(c1ccc(F)cc1)c1ccc(Cl)cc1` (stereo not drawn) [Compound 7u, 2-((((4-chlorophenyl)(4-fluorophenyl)methyl)sulfinyl)methyl)thiophene], the figures for the half-maximal inhibitory concentration (IC50) in experiment [1] (setting [4]), in experiment [2] (setting [7]) and in experiment [3] (setting [8]) were 6.4 ± 0.4 µM, > 50 µM and > 50 µM, respectively.
On to `[O-][S+](Cc1cccs1)C(c1ccccc1)c1cccc(I)c1` (stereo not drawn) [Compound 7j, 2-((((3-iodophenyl)(phenyl)methyl)sulfinyl)methyl)thiophene], for which the figures for the half-maximal inhibitory concentration (IC50) in experiment [1] (setting [4]), in experiment [2] (setting [7]) and in experiment [3] (setting [8]) were 1.46 ± 0.06 µM, > 50 µM and > 50 µM, respectively.
Take `COc1ccc([C@H](c2ccccc2)[S@@+]([O-])Cc2cccs2)cc1` [Compound 5t, (S,S)-2-((((4-methoxyphenyl)(phenyl)methyl)sulfinyl)methyl)thiophene]: the values for the half-inhibitory concentration (IC50) in experiment [1] (setting [4]), in experiment [2] (setting [5]) and in experiment [3] (setting [6]) were 16 ± 6 µM, > 50 µM and > 50 µM, respectively.
As for `Cc1cccc([C@@H](c2ccccc2)[S@@+]([O-])Cc2cccs2)c1` [Compound 5m, (S,R)-2-(((phenyl(m-tolyl)methyl)sulfinyl)methyl)thiophene], the half-inhibitory concentration (IC50) is 2.2 ± 0.4 µM in experiment [1] (setting [4]), > 50 µM in experiment [2] (setting [5]) and > 50 µM in experiment [3] (setting [6]).
With `[O-][S+](Cc1cccs1)C(c1ccccc1)c1cccc(I)c1` (stereo not drawn) [Compound 5j, 2-((((3-iodophenyl)(phenyl)methyl)sulfinyl)methyl)thiophene], the 50% inhibitory concentration (IC50) in experiment [1] (setting [4]) was 2.09 ± 0.21 µM; in experiment [2] (setting [5]) it was > 50 µM; in experiment [3] (setting [6]), > 50 µM.
Consider `[O-][S@@+](Cc1cccs1)[C@H](c1ccccc1)c1ccccc1Cl` [Compound 8d, (S,R)-2-((((2-chlorophenyl)(phenyl)methyl)sulfinyl)methyl)thiophene], for which the IC50 in experiment [1] (setting [9]) is 2.55 ± 0.04 µM; in experiment [2] (setting [10]), > 50 µM; in experiment [3] (setting [11]) it was > 50 µM.
Turning to `COc1cccc(C(c2ccccc2)[S+]([O-])Cc2cccs2)c1` (stereo not drawn) [Compound 6s, 2-((((3-methoxyphenyl)(phenyl)methyl)sulfinyl)methyl)thiophene], the figures for the IC50 in experiment [1] (setting [4]), in experiment [2] (setting [5]) and in experiment [3] (setting [8]) were 5.41 ± 0.99 µM, 35 ± 3 µM and > 50 µM, respectively.
For the compound `[O-][S+](Cc1cccs1)C(c1ccccc1)c1ccccc1C(F)(F)F` (stereo not drawn) [Compound 6o, 2-(((phenyl(2-(trifluoromethyl)phenyl)methyl)sulfinyl)methyl)thiophene], the 50% inhibitory concentration (IC50) in experiment [1] (setting [4]), in experiment [2] (setting [7]) and in experiment [3] (setting [6]) was > 50 µM each time.
`[O-][S@@+](Cc1cccs1)[C@H](c1ccccc1)c1ccccc1F` [Compound 8a, (S,R)-2-((((2-fluorophenyl)(phenyl)methyl)sulfinyl)methyl)thiophene]: the IC50 in experiment [1] (setting [9]) was 1.09 ± 0.07 µM; in experiment [2] (setting [10]) it was > 50 µM; in experiment [3] (setting [11]) it was > 50 µM.
In the case of `Cc1ccccc1C(c1ccccc1)[S+]([O-])Cc1cccs1` (stereo not drawn) [Compound 5l, 2-(((phenyl(o-tolyl)methyl)sulfinyl)methyl)thiophene], the IC50 is 15.6 ± 1 µM in experiment [1] (setting [9]), > 50 µM in experiment [2] (setting [10]) and > 50 µM in experiment [3] (setting [11]).
Regarding `[O-][S+](Cc1cccs1)C(c1ccccc1)c1ccccc1Br` (stereo not drawn) [Compound 7g, 2-((((2-bromophenyl)(phenyl)methyl)sulfinyl)methyl)thiophene], the half-maximal inhibitory concentration (IC50) in experiment [1] (setting [4]), in experiment [2] (setting [7]) and in experiment [3] (setting [8]) was > 50 µM in each case. In addition, the “activity on DAT (reuptake inhibition), in words” value in experiment [1] (at 50 µM) is on record as “no effect”. Also, in experiment [2] (setting [12]), the “activity on SERT (reuptake inhibition), in words” value was “no effect”. Moreover, the “activity on NET (reuptake inhibition), in words” value in experiment [3] (setting [12]) is on record as “no effect”.
Regarding `[O-][S+](Cc1cccs1)C(c1ccccc1)c1cccc(C(F)(F)F)c1` (stereo not drawn) [Compound 5p, 2-(((phenyl(3-(trifluoromethyl)phenyl)methyl)sulfinyl)methyl)thiophene], the IC50 in experiment [1] (setting [4]) was 5 ± 1 µM; in experiment [2] (setting [5]) it was > 50 µM; in experiment [3] (setting [6]), > 50 µM.
Regarding `Cc1ccc(C(c2ccccc2)[S+]([O-])Cc2cccs2)cc1` (stereo not drawn) [Compound 5n, 2-(((phenyl(p-tolyl)methyl)sulfinyl)methyl)thiophene], the IC50 in experiment [1] (setting [9]) was 3.97 ± 0.21 µM; in experiment [2] (setting [10]), > 50 µM; in experiment [3] (setting [6]) it was > 50 µM.
Regarding `[O-][S@+](Cc1cccs1)[C@H](c1ccccc1)c1ccccc1F` [Compound 5a, (R,R)-2-((((2-fluorophenyl)(phenyl)methyl)sulfinyl)methyl)thiophene], the IC50 in experiment [1] (setting [9]) is 32.8 ± 0.2 µM; in experiment [2] (setting [10]), > 50 µM; in experiment [3] (setting [11]), > 50 µM.
In the case of `[O-][S@+](Cc1cccs1)[C@H](c1ccccc1)c1ccc(Cl)cc1` [Compound 8f, (R,R)-2-((((4-chlorophenyl)(phenyl)methyl)sulfinyl)methyl)thiophene], the IC50 in experiment [1] (setting [4]) is 4.9 ± 0.6 µM; in experiment [2] (setting [5]), > 50 µM; in experiment [3] (setting [6]) it was > 50 µM.
As to `[O-][S+](Cc1cccs1)C(c1ccccc1)c1ccccc1I` (stereo not drawn) [Compound 7i, 2-((((2-iodophenyl)(phenyl)methyl)sulfinyl)methyl)thiophene], the figures for the concentration for half-maximal inhibition (IC50) in experiment [1] (setting [4]), in experiment [2] (setting [7]) and in experiment [3] (setting [8]) were 28.4 ± 2.8 µM, > 50 µM and > 50 µM, respectively.
Turning to `[O-][S+](Cc1cccs1)C(c1ccccc1)c1ccccc1C(F)(F)F` (stereo not drawn) [Compound 7o, 2-(((phenyl(2-(trifluoromethyl)phenyl)methyl)sulfinyl)methyl)thiophene], the half-maximal inhibitory concentration (IC50) in experiment [1] (setting [4]), in experiment [2] (setting [7]) and in experiment [3] (setting [6]) was > 50 µM throughout.
With `[O-][S+](Cc1cccs1)C(c1ccccc1)c1ccc(C(F)(F)F)cc1` (stereo not drawn) [Compound 8q, 2-(((phenyl(4-(trifluoromethyl)phenyl)methyl)sulfinyl)methyl)thiophene], the figures for the IC50 in experiment [1] (setting [4]), in experiment [2] (setting [5]) and in experiment [3] (setting [8]) were 21 ± 2 µM, 4.7 ± 0.5 µM and > 50 µM, respectively.
Turning to `[O-][S+](Cc1cccs1)C(c1ccccc1)c1ccccc1C(F)(F)F` (stereo not drawn) [Compound 5o, 2-(((phenyl(2-(trifluoromethyl)phenyl)methyl)sulfinyl)methyl)thiophene], the figures for the IC50 in experiment [1] (setting [4]), in experiment [2] (setting [5]) and in experiment [3] (setting [6]) were > 50 µM, > 50 µM and 25 ± 1 µM, respectively.
`Cc1ccc(C(c2ccccc2)[S+]([O-])Cc2cccs2)cc1` (stereo not drawn) [Compound 6n, 2-(((phenyl(p-tolyl)methyl)sulfinyl)methyl)thiophene]: the half-maximal inhibitory concentration (IC50) in experiment [1] (setting [9]), in experiment [2] (setting [10]) and in experiment [3] (setting [8]) was > 50 µM each time.
Take `[O-][S+](Cc1cccs1)C(c1ccccc1)c1ccc(C(F)(F)F)cc1` (stereo not drawn) [Compound 5q, 2-(((phenyl(4-(trifluoromethyl)phenyl)methyl)sulfinyl)methyl)thiophene]: the half-inhibitory concentration (IC50) in experiment [1] (setting [4]) was 17 ± 2 µM; in experiment [2] (setting [5]), > 50 µM; in experiment [3] (setting [6]) it was > 50 µM.
